Results from US11213509B2, “Compositions and methods for treating traumatic brain injury” (Ischemix, LLC, priority 2017, dated 2022).

Test system: rat model of focal TBI
Assay: Morris water maze, rat model of focal TBI (BCCI)
Format: in vivo
Conditions: for Improvement in escape latency relative to Day 1 / Morris water maze escape latency: 30 mg/kg; for Morris water maze escape latency: vs saline
From the text: BCCI TBI to the medial frontal cortex (MFC) was induced by a cortical contusion device (Custom Design & Fabrication, Inc [CDF], Richmond, Va.). This device creates a reliable contusion injury to the exposed area of the brain with a brass-tipped impounder. (Hoffman et al., 1994). Rats were anesthetized with isoflurane (5%) (Novaplus™), and 02 (300 cm^3/min), and mounted in a stereotaxic frame. Under aseptic conditions, a sagittal incision was made in the scalp and the fascia retracted to expose the cranium. Then, a 6-mm diameter trephine drill was used to open the skull immediately anterior to the bregma. TBI of the MFC was made with a 5-mm-diameter rounded brass impactor attached to a computer-controlled piston propelled electronically with following parameters: velocity=2.5 m/s; depth=3 mm; duration=100 ms). After BCCI, any cortical surface hemorrhaging was controlled and the fascia and scalp sutured. The animals were allowed to recover in a warmed recovery chamber and appropriate post-operative care was taken. Treatment was delivered 30 minutes after injury and at approximately 24 hrs after injury. Two weeks after injury, rats were tested in the Morris water maze (MWM). The MWM is a well-characterized test of spatial learning and memory in rodents. The objective of the MWM is to teach rats that there is an escape platform located somewhere in a large, water filled pool. The rats are naturally motivated to escape the pool. The rats use extra-maze visual cues to locate the position of a submerged platform over a series of trials. The MWM test was conducted beginning at day 14 after traumatic brain injury. Rats were acclimated to the test room at least 1 hour prior to testing. The MWM consists of a circular pool (160 cm diameter×50 cm height) containing water that was made opaque with non-toxic black paint in order to hide the escape platform (see FIG. 4A). The water temperature was kept at 25±1° C. The water surface was 15 cm from the rim of the pool, and the inner wall was always carefully wiped to eliminate any local cues. The pool was located in a large room with a number of extra-maze visual cues, including highly visible geometric images (squares, triangles, circles, etc.) hung on the wall, diffuse lighting, and curtains to hide the experimenter and the awaiting rats. Behavior was tracked by a video camera hanging above the pool. Video tracking software (ANY-maze) recorded and analyzed the behavior of the animal in the pool. After training, the rats were gently dried with clean paper towels and placed in a warmed holding cage for the rats to dry before being returned to their home cage. Training: During training, the rat was placed into the water facing the wall of the pool and allowed to search for the platform. If the rat found the platform within 60 seconds, the trial was stopped, and the rat was allowed to stay on the platform for 30 seconds before being moved. If the platform was not found within 60 seconds, rats were placed on the platform for 30 sec in order to allow them time to learn the position of the platform in relation of the room's visual cues. Rats were given 4 trials a day for 4 days (days 14 to 17), with a 30 second interval between trials. The starting point was randomly rotated for every rat in each trial. Probe Trial: On the fifth day (day 18 after surgery), the rats received a probe trial. The probe test consisted of placing the animal in the pool for 60 seconds without the platform and monitoring the time spent in the four quadrants of the pool (see FIG. 4B). An animal that has learned the position of the platform will spend more time searching that target quadrant of the pool. During training, a submerged hidden target platform is placed in the pool and this region is defined as the target quadrant (see FIG. 4A). During the probe trial, the platform is removed and the duration of swimming in the different quadrants is tracked by the video camera and computer. […]

[1] = day 18 following surgery, 30 mg/kg vs saline

Compound: CC(NC(=O)C(CCC(=O)O)NC(=O)CCCCC1CCSS1)C(=O)O [CMX-2043, N—(R)-lipoyl-glutamylalanine]
- Improvement in escape latency relative to Day 1 (Day 2 of training): 4.9 s
- Improvement in escape latency relative to Day 1 (Day 3 of training): 8.7 s
- Improvement in escape latency relative to Day 1 (Day 4 of training, significantly better than saline): 24.2 s
- Morris water maze escape latency (day 1 of training): longer latency times than saline treated animals
- Probe trial number of entries into the platform zone [1]: did not reveal a significant difference
- Probe trial time spent in the target quadrant [1]: did not show an overall difference
- Morris water maze escape latency (final training day): significantly faster escape latency
- Morris water maze escape latency (training days 2 and 3): no differences between groups
- Morris water maze swim distance (training, 30 mg/kg vs saline): no difference
- Morris water maze swim speed (training, 30 mg/kg vs saline): no difference
